Where a name gives a salt, the structure may show the parent alone.
How the values were obtained:
[1] = Measurement of average particle diameter of particulate formulation (automatic particle image analyzer); assay type: physicochemical; conditions: particle diameter of 50% by volume; 20000 or more particles
Description: Herein, the “average particle diameter” means the particle diameter of 50% by volume of the entire particles and may be measured by using an “automatic particle image analyzer” (a particle image analyzer is an apparatus for measuring the particle diameter from images of photographed particles) and a “laser diffraction particle size distribution analyzer” (or a “laser diffraction/scattering particle size distribution analyzer”).
The average particle diameter was measured using 20000 or more particles with an automatic particle image analyzer (Morphologi (registered trade name)-G3 from Malvern Instruments).

[2] = Dissolution test, flow-through cell method of the Japanese Pharmacopoeia; assay type: physicochemical; conditions: Tamsulosin hydrochloride
Description: According to the flow-through cell method disclosed in the Japanese Pharmacopoeia, the test was carried out using a dissolution medium which was one of 1st fluid for dissolution test (pH 1.2), 2nd fluid for dissolution test (pH 6.8), and a disodium hydrogen phosphate-citric acid buffer solution at pH 7.2 (obtained by dissolving 7.1 g of dehydrated disodium hydrogen phosphate in water and adjusting the total volume to be 1000 mL, and adjusting the pH to 7.2 by adding, to the obtained solution, a solution obtained by dissolving 5.3 g of citric acid monohydrate in water and adjusting the total volume to be 1000 mL).
Swinnex Filter Holder 25 mm (from Nippon Millipore) was used for a cell. In order to prevent flowing out of the particulate formulations, a support screen (25 mm stainless, from Nippon Millipore), Durapore Membrane Filters (PVDF, Hydrophilic, 0.45 μm, 25 mm, from Nippon Millipore), and a silicon gasket 25 mm (Swinnex Filter Holder from Nippon Millipore) were successively installed. Masterflex L/S (Model 7524-50 from Cole Parmer Instrument COMPANY) was used as a pump and a dissolution medium was transported at 2.5 mL/min. Besides that, the test was carried out according to the flow-through cell method disclosed in the Japanese Pharmacopeia. An eluate was sampled 10, 30, 60 minutes after starting the test and the dissolution amount of the drug in the eluate was measured by high performance liquid chromatography (HPLC) and the dissolution rate to the initial drug content was calculated.

- Average particle diameter of particulate formulations [1]: 2.7 μm
- Elution rate ratio between pH 6.8 and pH 1.2 ([2]; 60 min): 2.4
- Drug dissolution under a condition of pH 1.2, in words ([2]; pH 1.2): high drug dissolution rate
- Pharmaceutical elution rate 60 minutes after starting the test(%) ([2]; pH 1.2, 60 min): 36.7%
- Drug dissolution under a condition of pH 6.8, in words ([2]; pH 6.8): high drug dissolution rate
- Pharmaceutical elution rate 60 minutes after starting the test(%) ([2]; pH 6.8, 60 min): 88.4%
SMILES: CCOc1ccccc1OCCN[C@H](C)Cc1ccc(OC)c(S(N)(=O)=O)c1 [Comparative Example 9, Tamsulosin hydrochloride]

Reference: patent US20120308662A1, “PARTICULATE PREPARATION AND METHOD FOR PRODUCING THE SAME” (NITTO DENKO CORPORATION, priority 2011, published 2012)
